# Values of other authors, collected in patent US20200069728A1, “HYPOCHLOROUS ACID BASED EYE DROP AND OPHTHALMIC COMPOSITION” (priority 2018, published 2020).
# Details: non-stabilized hypochlorous acid, background statement
smiles,measurement,value
OCl [hypochlorous acid],potency lost per day,1-2%
